Among the test systems are M14 melanoma; A498 renal; MOLT-4 leukemia; EKVX NSCLC; UACC-257 melanoma; NCI-H23 lung; PC-3 prostate; NCI-H226 lung; UO-31 renal; 786-0 renal.
Holding throughout (test): NCI tumour cell line growth inhibition, 48 h

8 molecules from PubChem BioAssay (NCI) can be followed below.

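Interpolation was linear, between the two tested concentrations surrounding the appropriate level; five concentrations were tested over 48 hours in 96-well plates. At the GI50, growth is halved. TGI: total growth inhibition.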

With `CC(C)CCC[C@@H](C)[C@H]1CC[C@H]2[C@@H]3CC=C4C[C@@H](C(C(=O)O)C(=O)O)CC[C@]4(C)[C@H]3CC[C@]12C`, the GI50 in the assay with M14 melanoma was 0.186 µM; in the assay with A498 renal, 0.0862 µM; in the assay on MOLT-4 leukemia, 0.248 µM; with EKVX NSCLC, 0.0786 µM; in the assay with UACC-257 melanoma, 0.133 µM; with NCI-H23 lung, 0.147 µM. The GI50 was 0.177 µM with PC-3 prostate, 0.209 µM in the assay on NCI-H226 lung, 0.137 µM in the assay with UO-31 renal and 0.288 µM in the assay on 786-0 renal. For the same molecule, the TGI in the assay with M14 melanoma turned out to be 1.76 µM; in the assay with A498 renal, 0.216 µM; with MOLT-4 leukemia, 2.05 µM; in the assay with EKVX NSCLC it was 0.245 µM; in the assay with UACC-257 melanoma it was 0.639 µM; in the assay on NCI-H23 lung it was 0.63 µM. In addition, the TGI with PC-3 prostate turned out to be 2.19 µM; in the assay with NCI-H226 lung, 0.622 µM; with UO-31 renal, 0.467 µM; in the assay with 786-0 renal it was 2.51 µM.
Turning to `COc1ccc(-c2nc3sccn3c2/C(N)=N/C(=N)N)cc1OC`, the GI50 was 29.4 µM with M14 melanoma; above 100 µM in the assay on A498 renal; 27.6 µM in the assay with MOLT-4 leukemia; 66.4 µM with EKVX NSCLC; 40.7 µM in the assay on UACC-257 melanoma; above 100 µM in the assay with NCI-H23 lung. The GI50 was 34.3 µM with PC-3 prostate, 45.1 µM in the assay on NCI-H226 lung, 7.37 µM in the assay with UO-31 renal and 32.9 µM with 786-0 renal. Besides, the TGI in the assay with M14 melanoma was 79.5 µM; in the assay with A498 renal, above 100 µM; with MOLT-4 leukemia it was above 100 µM; in the assay on EKVX NSCLC, above 100 µM; in the assay with UACC-257 melanoma, above 100 µM; in the assay with NCI-H23 lung, above 100 µM. Moreover, the TGI in the assay with PC-3 prostate was above 100 µM; in the assay on NCI-H226 lung, above 100 µM; with UO-31 renal it was 40.2 µM; in the assay on 786-0 renal, above 100 µM.
In the case of `Nc1ccccc1SC(C[N+](=O)[O-])c1ccc2c(c1)OCO2` (stereo not given), the TGI with M14 melanoma was found to be 3.15 µM; in the assay on A498 renal, 20.6 µM; in the assay with MOLT-4 leukemia, 6.66 µM; with EKVX NSCLC it was 13.3 µM; with UACC-257 melanoma, 3.86 µM; with NCI-H23 lung, 8.04 µM. Moreover, the TGI was 20.6 µM with PC-3 prostate, 32.4 µM in the assay on NCI-H226 lung, 3.32 µM with UO-31 renal and 3.15 µM with 786-0 renal.
Regarding `COC1=CC(c2ccc[nH]2)=N/C1=C\c1[nH]c(C)c(C(=O)OC(C)C)c1C`, the GI50 in the assay on M14 melanoma was 0.034 µM; in the assay with A498 renal it was 0.255 µM; in the assay with MOLT-4 leukemia, 0.0346 µM; with EKVX NSCLC, 0.0799 µM; in the assay with UACC-257 melanoma, 0.0898 µM; in the assay on NCI-H23 lung, 0.0702 µM. Moreover, the GI50 with PC-3 prostate is 0.0633 µM; in the assay with NCI-H226 lung, 0.0795 µM; in the assay with UO-31 renal it was 0.0494 µM; with 786-0 renal it was 0.0476 µM. Moreover, the TGI with M14 melanoma was determined as 1.23 µM; in the assay on A498 renal, 1.92 µM; in the assay with MOLT-4 leukemia, 3.51 µM; in the assay with EKVX NSCLC, 2.31 µM; in the assay with UACC-257 melanoma, 1.87 µM; in the assay on NCI-H23 lung, 1.74 µM. Besides, the TGI was found to be 4.7 µM with PC-3 prostate, 1.28 µM in the assay on NCI-H226 lung, 0.175 µM in the assay with UO-31 renal and 1.03 µM in the assay on 786-0 renal.
Take `CC/C=C\CCC/C=C1/C(=O)C=C[C@@H]1C/C=C\CCCC(=O)OC`: the GI50 in the assay with M14 melanoma was 3.17 µM; in the assay with A498 renal, 19.8 µM; in the assay on MOLT-4 leukemia, 2.43 µM; in the assay on EKVX NSCLC, 4.56 µM; with UACC-257 melanoma, 7.55 µM; with NCI-H23 lung it was 3.23 µM. In addition, the GI50 in the assay with PC-3 prostate is 3.14 µM; in the assay with NCI-H226 lung, 3.25 µM; in the assay with UO-31 renal it was 2.04 µM; with 786-0 renal, 3.74 µM. In addition, the TGI in the assay on M14 melanoma is 10.1 µM; in the assay on A498 renal, 34.7 µM; with MOLT-4 leukemia, 8.39 µM; with EKVX NSCLC, 15.6 µM; with UACC-257 melanoma, 20.5 µM; in the assay with NCI-H23 lung it was 10.8 µM. For the same molecule, the TGI in the assay on PC-3 prostate turned out to be 8.11 µM; with NCI-H226 lung, 9.64 µM; with UO-31 renal it was 5.15 µM; in the assay with 786-0 renal it was 11.4 µM.
`COC1=CC(=O)c2nc(-c3ccncc3)[nH]c2C1=O`: the GI50 in the assay with M14 melanoma, with A498 renal, in the assay on MOLT-4 leukemia, in the assay on EKVX NSCLC, in the assay with UACC-257 melanoma and in the assay on NCI-H23 lung was above 100 µM each time. For the same molecule, the GI50 in the assay on PC-3 prostate was above 100 µM; with NCI-H226 lung it was above 100 µM; with UO-31 renal it was 86.7 µM; with 786-0 renal it was above 100 µM. In addition, the TGI with M14 melanoma, in the assay on A498 renal, in the assay on MOLT-4 leukemia, in the assay on EKVX NSCLC, in the assay with UACC-257 melanoma and in the assay on NCI-H23 lung was above 100 µM each time. Also, the TGI with PC-3 prostate, with NCI-H226 lung, with UO-31 renal and with 786-0 renal was above 100 µM throughout.
As to `Cn1cnc([N+](=O)[O-])c1Sc1nnc(-c2cccnc2)n1C`, the TGI was 35.4 µM in the assay on M14 melanoma; above 100 µM in the assay on A498 renal; 52 µM with MOLT-4 leukemia; 66.4 µM in the assay with EKVX NSCLC; 23 µM in the assay on UACC-257 melanoma; 51.7 µM in the assay with NCI-H23 lung. Also, the TGI in the assay with PC-3 prostate is above 57.9 µM; in the assay with NCI-H226 lung it was above 81.6 µM; in the assay on UO-31 renal, 53.8 µM; in the assay with 786-0 renal it was 41.6 µM.
With `NC(=O)c1cccc2cn(-c3ccc([C@@H]4CCCNC4)cc3)nc12`, the GI50 in the assay with M14 melanoma was 10.7 µM; with A498 renal, 19.2 µM; in the assay on MOLT-4 leukemia it was 6.99 µM; with EKVX NSCLC, 19.7 µM; in the assay with UACC-257 melanoma it was 15.8 µM; in the assay on NCI-H23 lung it was 11.3 µM. Besides, the GI50 is 16.1 µM in the assay on PC-3 prostate, 14.4 µM in the assay with NCI-H226 lung, 11.3 µM in the assay on UO-31 renal and 16.2 µM with 786-0 renal. For the same molecule, the TGI in the assay on M14 melanoma is 26.3 µM; in the assay with A498 renal, 40.8 µM; with MOLT-4 leukemia it was 30.1 µM; in the assay on EKVX NSCLC, 64.2 µM; with UACC-257 melanoma, 30.7 µM; in the assay with NCI-H23 lung, 45 µM. In addition, the TGI was above 100 µM in the assay with PC-3 prostate, 30.1 µM with NCI-H226 lung, 25.2 µM in the assay with UO-31 renal and 33 µM with 786-0 renal.
